Assay results published in patent US6878690B2, “Compounds and methods” (PharmAxis Pty Ltd., priority 2000, dated 2005).
Where “and” joins values, the source holds several entries; their conditions need not be identical. Equal entries are not always repeated.

Test system: passively transferred EAE
Experiment: Passively transferred EAE induced with encephalitogenic MBP-specific T cell line (Example 23)
Type: in vivo, Lewis rats
Details: for clinical scores treated, mean: group mean; for clinical scores treated, mean / clinical scores treated: scale 0 to 5; for clinical scores treated: individual rats, 45 mg/kg/rat/day mini-osmotic pump
Description: In order to study the effect of the agents of the present invention in vivo on a disease caused by T lymphocyte migration into a specific tissue, experiments were performed in the Lewis rat model of passively transferred EAE. Here, myelin basic protein (MBP)-specific T lymphocyte cell lines were generated from the draining lymph nodes of Lewis rats that had been immunised with MBP in Freund's complete adjuvant essentially according to the method of Ben-Nun et al. (1981) as described in Example 8. Thus, in this manner, donor T lymphocytes were generated from female 10 to 12 week old Lewis rats weighing 150 to 200 g. These rats were injected intradermally in a footpad of each hind foot with an emulsion of Guinea pig myelin basic protein (MBP; prepared according to the method of Deibler et al., 1972; incorporated herein by reference) in Freund's complete adjuvant (0.05 ml). The adjuvant emulsion was prepared by emulsifying equal volumes of a mixture of light mineral oil (Sigma) and normal saline containing Guinea pig myelin basic protein (0.5 mg/ml) and Mycobacterium butyricum (4 mg/ml; Difco). Thus, the total dose per rat was 50 micrograms of MBP and 400 micrograms of M. butyricum. Approximately 11 days following injection, the rats were euthanased and the draining lymph nodes (popliteal and inguinal) removed aseptically by blunt dissection and placed into mixed lymphocyte culture medium. This medium was prepared in the normal fashion from Dulbecco's Modified Eagle's Medium (DMEM; GIBCO, Grand Island, N.Y.) supplemented with glucose, folic acid, L-asparagine, sodium bicarbonate, L-glutamine, sodium pyruvate, HEPES, 2-mercaptoethanol (5×10^−5 M), penicillin, streptomycin, neomycin, and 2% fetal calf serum. A single cell suspension was prepared from the lymph nodes in the usual manner by gently pushing the nodes through a stainless steel screen. The cells were washed twice in the culture medium and following this procedure, any red blood cells were lysed in the usual manner by treating with a solution of ammonium chloride, EDTA and sodium hydrogen carbonate (pH 7.3) and the preparation strained (Falcon 2350 cell strainer). The cells were washed again in the lymphocyte culture medium. All cell preparative steps were performed on ice. These cells were cultured asceptically for 72 hours at 37° C. in a humidified atmosphere containing 7.5% carbon dioxide at a concentration of 5 million cells per milliliter in the presence of MBP (0.06 mg/ml). The cells were collected and the lymphoblasts were isolated by centrifugation on a Ficoll (Pharmacia, Uppsala, Sweden) gradient in an identical manner to that described by Ben Nun et al. (1981). The fraction containing ≧90% lymphoblasts was cultured and propagated in Eagle's medium supplemented with 15% of a concanavalin A-stimulated lymphocyte supernatant to provide growth factors, 10% fetal calf serum, nonessential amino acids (Bio-Lab, Jerusalem, Israel); sodium pyruvate, 2-mercapto ethanol and antibiotics without added antigen. The cells were plated in 100 mm petri dishes at a concentration of 0.2 million cells/ml and replated every 3 or 4 days. Prior to transfer into Lewis recipients, the cells were restimulated in the presence of MBP (0.01 mg/ml) and irradiated syngeneic thymocytes for 4 days.
These cells were highly encephalitogenic sine as few as 500,000 cells were capable of inducing disease when injected into naïve Lewis rats. Thus, in a typical experiment a group of 5 female Lewis rats, approximately 9 weeks old, weighing 110±15 grams were anesthetised with diethyl ether and implanted with mini-osmotic pumps (Alzet 2002, Alza Corp., Palo Alto Calif., USA) containing phosphoric acid mono-(6-propyl-3,4,5-trihydroxy-tetrahydro-pyran-2-ylmethyl) ester mono sodium salt dissolved in normal saline at a concentration that delivered the drug at a rate of 45 mg/kg/rat/day. […]

In the case of `CCCC1OC(COP(=O)(O)O)C(O)C(O)C1O` (stereo not shown) [phosphoric acid mono-(6-propyl-3,4,5-trihydroxy-tetrahydro-pyran-2-ylmethyl) ester], the “clinical scores treated, mean” value (day 4, 45 mg/kg/rat/day) is reported as 0, the clinical scores treated (day 4) is reported as 0 and the “clinical scores treated, mean” value (day 5, 45 mg/kg/rat/day) is reported as 0.6. For the same compound, the clinical scores treated (day 5, 45 mg/kg) was 1 (3×) and 0 (2×), the “clinical scores treated, mean” value (day 6, 45 mg/kg/rat/day) was 1 and the clinical scores treated (day 6, 45 mg/kg) was 2 (2×) and 0 (2×) and 1. For the same compound, the “clinical scores treated, mean” value (day 7, 45 mg/kg/rat/day) was 0.4, the clinical scores treated (day 7, 45 mg/kg) was 0 (3×) and 1 (2×) and the “Mean maximum clinical score” value (treated group, 45 mg/kg/rat/day, control group 2.0) was “clinical score 1.0”. The “disease index (DI)” value (treated group, 45 mg/kg/rat/day, control group DI 160) was “DI 40”.
